The test system of data set [1] is 100% HCT116 AKR1C3 MCLs. Put plainly: 3D multicellular layer (MCL) assay, 100% HCT116 AKR1C3. It is filed as cell-based, human. To be noted: 10 µM prodrug, five hours. As to the method:
Similar to the 3D NfsA_Ec screen, increased lipophilicity also tracked with increased LCK in 100% AKR1C3-expressing MCLs (R = 0.78, R^2 = 0.61). […] These three lead compounds were taken forward into in vivo studies.
Multicellular layers (MCLs) were grown, and bystander effect assays were performed as previously reported.
Figure 4 Lipophilic structure–activity relationship for AKR1C3 in three dimensions. (A) Plating efficiency in 100% HCT116 WT and 100% HCT116 AKR1C3 MCLs exposed to 10 µM prodrug for five hours before dissociation and plating to determine clonogenic survival. (B) Correlation between Log cell kill and LogD7.4. R = 0.78, R^2 = 0.61. Log cell kill = Log CS (control)–Log CS (treated), where CS is the number of clonogenic survivors per MCL.

Data set [2] in a line: LogD7.4 by low-volume octanol/PBS shake-flask method. To be noted: n-octanol/PBS; octanol-water partition coefficient, shake-flask method at pH 7.4. It is filed as physicochemical. As to the method: Distribution ratios (LogD7.4) were determined by a low-volume octanol/PBS shake-flask method. Briefly, saturated solutions of octanol and PBS were prepared by mixing equal volumes of n-octanol and PBS (pH 7.4) before being left for three days. The octanol and PBS phases were then carefully separated and left to stand for at least 24 h. Stock solutions (0.1–0.5 mM) of each compound were prepared in octanol saturated with PBS. The stock solutions were diluted with octanol saturated with PBS containing and inter-assay control (acridone) to a final compound concentration of 50 μM. Aliquots (450 μL) were then taken in triplicate, and 450 μL of PBS saturated with octanol was added into amber tubes. The tubes were then sealed in parafilm and rotated for 90 min at 30 rpm to equilibrate. After centrifugation (15,000× g, 5 min, 20°C) the octanol and PBS phases were separated into different tubes and the octanol phase diluted with methanol (1:5 v/v). Both phases were analyzed by HPLC (diode-array detector at 364 ± 10 nm) by injecting 50 μL of the PBS phase and 15 μL of the diluted octanol phase. The results were then expressed as the log ratio of the peak areas obtained from the octanol and PBS phases corrected for dilution and injection volume.

The subject of data set [3] is 47 different NTR candidates. As to the kind of experiment: GFP-SOS (DNA damage) response in E. coli SOS-R4 reporter strains expressing nitroreductase candidates. It is filed as cell-based. To be noted: 20 µM, six-hour exposure, library of E. coli reporter cells. An excerpt:
(§1) We next sought to characterize the NfsA_Ec-mediated conversion of lead prodrug 6 in steady-state kinetics assays using purified His6-tagged NfsA_Ec. […] We therefore conducted a preliminary assessment of whether alternative bacterial NTR enzymes might hold promise for further GDEPT improvements.
Supplementary Figure S2. Identification of alternative nitroreductases able to activate compound 6. Bar graph displaying the fold-induction of GFP in the DNA-damage responsive E. coli reporter strain SOS-R4, following six-hour exposure to 20 µM of compound 6, compared with unchallenged replicates. Individual strains expressed nitroreductase candidates derived from different bacteria, identified by a two-letter suffix as explained in the Materials and Methods. The background SOS response induced by compound 6 in an empty plasmid control strain is indicated by the dashed line. […]
The GFP-SOS response was determined in SOS-R4 [16] by inoculating 200 μl aliquots of LBASG (lysogeny broth supplemented with 100 μgml-1 ampicillin, 50 μgml-1 spectinomycin and 0.2% glucose (w/v)) with selected SOS-R4 nitroreductase-over-expressing strains and incubating overnight at 30 °C, 200 rpm. […] Control and challenge plates were incubated at 30 °C, 200 rpm for 6 h, at which point OD600 and GFP fluorescence (excitation 490 nm/ emission 503 nm) were measured on an Enspire™ 2300 Multilabel Reader (Perkin Elmer, Waltham, MA). […]

The test system of data set [4] is H1299 WT cells. As to the kind of experiment: Anti-proliferative IC50 assay, H1299 WT cells. The class given is cell-based. The note with it: Homo sapiens, NCI-H1299, 4 hour drug exposure, regrowth for five days. The procedure:
(§2) The anti-proliferative IC50 was determined as the concentration of prodrug required for 50% inhibition of cell growth, following drug exposure for four hours, then five days regrowth in the absence of drug. Assays were performed under oxic or anoxic conditions as described previously, the latter by using a 5% H2/palladium catalyst scrubbed Bactron anaerobic chamber (Sheldon Manufacturing, Cornelius, OR, USA) to achieve severe anoxia (<10 ppm O2 gas phase) during prodrug exposure.
(§3) Supplementary Table S2. In vitro anti-proliferative activity of the three lead prodrug compounds in H1299 cells expressing E. coli NfsA. IC50 values were determined as the concentration of drug required to inhibit cell growth by 50% of untreated controls following 4 hour drug exposure, with washing and regrowth for five days.
(§4) Compound WT NfsA_Ec Ratio

For data set [5], the system named is H1299 cells expressing E. coli NfsA. As to the kind of experiment: Anti-proliferative IC50 assay, H1299 cells expressing E. coli NfsA. The class given is cell-based. The procedure: as §2, §3, §4
The target in data set [6] is T1, purified His6-tagged NfsA_Ec (Escherichia coli, UniProt P17117).
T1 construct: His6; made in house
T1 sequence (P17117 1-240): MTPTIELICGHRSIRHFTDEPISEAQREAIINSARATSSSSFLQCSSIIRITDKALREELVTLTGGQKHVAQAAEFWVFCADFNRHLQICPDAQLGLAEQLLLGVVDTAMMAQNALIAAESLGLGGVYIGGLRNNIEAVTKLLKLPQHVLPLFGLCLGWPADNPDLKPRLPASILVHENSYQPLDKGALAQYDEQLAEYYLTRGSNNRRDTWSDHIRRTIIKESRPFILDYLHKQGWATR
Put plainly: Steady-state kinetics of reduction by purified NfsA_Ec. It is filed as biochemical, E. coli. To be noted: apparent, measured at 250 µM NADPH.
Text: as §1
Supplementary Table S3. Steady-state kinetic parameters* for reduction of compound 6 and PR-104A by NfsA_Ec.
Compound Km (µM) kcat (s-1) kcat/Km (mM-1 s-1)
* Apparent kinetic parameters, measured at 250 µM NADPH
# As previously reported by
NfsA_Ec was purified as a His6-tagged recombinant protein as previously described. Kinetics assays were performed in 60 µl in UVettes (Eppendorf), using the 2 mm light path length. Reactions contained 10 mM Tris-Cl (pH 7.0), 4% DMSO, 0.25 mM NADPH and varying concentrations of PR - 104A or compound 6. Reactions were initiated by addition of 6 µl enzyme and changes in absorbance were measured for 20 s (during linearity). For calculation of Km and kcat, substrate concentrations were varied from ~0.2 x Km to 5 x Km. Molar extinction coefficients of 4,800 or 6,000 M-1 cm-1 were used for compound 6 and PR-104A, respectively. Non-linear regression analysis and Michaelis-Menten curve fitting was performed using Sigmaplot 10.0 (Systat Software Inc.).

In data set [7] the test system is mixed H1299 xenograft containing 28% NfsA_Ec cells and 72% WT cells. Put plainly: Tumor growth delay assay, mixed H1299 xenograft. The class given is in vivo, mice. The note with it: single i.p. dose: PR-104 388 µmol/kg; 1-P 1330 µmol/kg; 2-P 750 µmol/kg; 6-P 1330 µmol/kg. The procedure: These ratios were broadly similar to those observed in HCT116 cells (Figure 2). A mixed H1299 xenograft model containing a minority percentage (28 ± 3.3%) of NfsA_Ec-expressing cells was used in order to rank the efficacy of the prodrugs in vivo. A model such as this necessitates the presence of a robust bystander effect to achieve a tumor growth delay. Tumor-bearing mice were administered a single intraperitoneal dose of prodrugs 1-P, 2-P, and 6-P at the H1299 tumor-bearing MTD. PR-104 was administered at 388 µmol/kg, the human equivalent dose (HED) in mice that provides a plasma AUCfree of PR-104A (38 µM-h) that equates to the human Q3W MTD of 1100 mg/m^2 [22].
An estimated starting dose was determined from related compounds. Animals were promptly euthanized if body weight loss exceeded 20% or if there were clinical signs of severe morbidity. The MTD was defined as the highest dose, at which all animals survived (death rate < 1/6) with no unacceptable morbidity, and where the next dose increment had caused at least one death. Tumors were inoculated onto the flanks of NIH-III nude mice by subcutaneous injection of 10^7 H1299 cells. Tumor-bearing mice were randomized to treatment groups (n = 5 mice per group) when tumors reached treatment size (300–350 mm^3) and injected with a single intraperitoneal dose of pre-prodrug. Tumor size and body weights were measured regularly. Tumor volume was calculated as π(Lxw^2)/6, where L is the major axis and w is the perpendicular minor axis. Animals were euthanized when the tumor volume had increased fourfold relative to pre-treatment volume (RTV4, survival endpoint) or if body weight loss exceeded 20% of the pre-treatment value. Kaplan–Meier plots were constructed, and median time to endpoint was calculated. Treatment efficacy was assessed by comparing the median survival time with untreated animals using the Log-rank test p-test (Sigmaplot version 11.0).
Figure 5 In vivo efficacy of the three lead pre-prodrug compounds in a mixed H1299 xenograft containing 28% NfsA_Ec cells and 72% WT cells. (A) Tumor growth and (B) survival analysis of mice bearing 250 mm^3 H1299 tumors treated with a single intraperitoneal dose of prodrug on day 0. N = 5 animals per group. Control = PBS, PR-104 = 388 µmol/kg; 1-P = 1330 μmol/kg; 2-P = 750 μmol/kg; and 6-P = 1330 μmol/kg. Survival endpoint was 4× start volume (RTV4).

For data set [8] the following is noted: cited from earlier work.
In data set [9] the test system is SiHa xenografts. As to the kind of experiment: Tumor excision assay, clonogenic cell kill of SiHa xenografts. The class given is in vivo, mice. To be noted: 18 h after treatment, PR-104 380 µmol/kg i.p., 6-P 1330 µmol/kg i.p. The procedure: The sensitivity of four cancer cell lines to prodrug 6 was determined under aerobic or anoxic conditions using an anti-proliferative IC50 assay. […] We also evaluated the hypoxic activity of 6-P versus PR-104 in vivo using a SiHa xenograft model (Figure 6B).
When tumors reached treatment size (>400 mm^3), mice were treated with drug by a single intraperitoneal injection of pre-prodrug or vehicle. Mice treated with ionizing radiation were exposed to 10 Gray prior to drug treatment, using a cobalt-60 source from an Eldorado G unit. Animals were euthanized 18 h after drug treatment, and tumors were excised and homogenized using sterile scissors until a fine mince was obtained. Following enzymatic dissociation (2.5 mg/mL pronase, 1 mg/mL collagenase, and 0.2 mg/mL DNAase in αMEM + 10% FBS + 1% P/S, 1 mL per 50 mg), cells were plated at concentrations of 10^2–10^5 cells per 60 mm dish and grown for 10 days before colonies were stained with methylene blue (2 g/L in 50% aqueous alcohol). Colonies containing >50 cells were counted as clonogenic survivors. From these values, plating efficiency (colonies/cells plated), number of clonogens per gram of tumor tissue (plating efficiency × total cells), and log cell kill relative to vehicle treated controls (log clonogens per gram) were calculated. Statistical analysis was undertaken using Holm–Sidak’s one-way ANOVA (Sigmaplot version 11.0).
(A) In vitro anti-proliferative activity of 6 in various cancer cell lines under aerobic and anoxic conditions. IC50 values were determined as the concentration of drug required to inhibit cell growth by 50% of untreated controls following 4 h drug exposure and five days regrowth (mean ±SEM of three or more independent determinations). (B) Clonogenic cell kill of SiHa xenografts 18 h after treatment with hypoxia activated prodrugs PR-104 (380 µmol/kg, i.p.) or 6-P (1330 µmol/kg, i.p.) with or without 10 Gy radiation.

The structures appear in SMILES notation.

As to `CCS(=O)(=O)c1cc([N+](=O)[O-])c(C(=O)N(C)CCO)cc1N(CCBr)CCBr` [Compound 6, 5-(Bis(2-bromoethyl)amino)-N-(2-hydroxyethyl)-N-methyl-4-(ethylsulfonyl)-2-nitrobenzamide], the “Log cell kill (LCK)” value in [1] is on record as at most 0.11. Moreover, the pH-dependent lipophilicity (logD) at 90 min in data set [2] amounted to 1.6. Also, the “Activation of the SOS (DNA damage repair) response” value in [3] is “broadly activated by members of both the NfsA and NfsB nitroreductase families”. In addition, the IC50 in data set [4] is 222 ± 39 µM; in [5] (Escherichia coli, NCI-H1299, H1299 NfsA_Ec, 4 hour drug exposure, regrowth for five days) it was 0.47 ± 0.1 µM. The “WT:NfsA_Ec IC50 ratio” value in data set [5] (H1299 WT vs H1299 NfsA_Ec) was 472 fold. Further, the catalytic constant (kcat) in [6] is 5.5 ± 0.3 s⁻¹.
Take `CS(=O)(=O)OCCN(CCBr)c1c(C(=O)NCCOP(=O)(O)O)cc([N+](=O)[O-])cc1[N+](=O)[O-]` [PR-104, 2-[(2-bromoethyl)-2,4-dinitro-6-[[[2-(phosphonooxy)ethyl]amino]carbonyl]anilino]ethyl methanesulfonate, reference compound]: the “Tumor growth delay (median time to RTV4) compared to untreated controls” value in data set [7] was 33%. Further, the “Human Q3W MTD” value in data set [8] is recorded as 1100 mg/m^2. Besides, the “Log cell kill, in combination with radiotherapy” value in data set [9] (10 Gy radiation) was determined as 3.72. For the same compound, the “Log cell kill, single agent” value in data set [9] was 1.38.

Source of the values: PMC8877822, “Interrogation of the Structure–Activity Relationship of a Lipophilic Nitroaromatic Prodrug Series Designed for Cancer Gene Therapy Applications” (Pharmaceuticals, 2022).
